According to publication PMC4580724 (Clinical Pharmacokinetics, 2015):
Values joined by “and” are separate entries in the source; they are usually repeats but may differ in a detail not shown here. Equal values may be shown once. Read-outs that look alike come from different tables or passages of the source.

What was measured:
[1] = assay type: in vivo, human; conditions: for AUC∞ geometric mean ratio test/reference (90 % CI) / C max geometric mean ratio test/reference (90 % CI): substrate + enzalutamide 160 mg/day vs substrate + placebo-to-match, n = 14
[2] = assay type: in vivo, human; conditions: for t max: median [range]; for AUCτ: one 24-h dosing interval at steady state, 14 patients, enzalutamide 160 mg once daily for 49 days
[3] = cited from earlier work
CYP2C8 = molecular target: T1, CYP2C8 (Homo sapiens, UniProt P10632); conditions: human hepatic microsomes; cited from earlier work
T1 sequence (P10632 1-490): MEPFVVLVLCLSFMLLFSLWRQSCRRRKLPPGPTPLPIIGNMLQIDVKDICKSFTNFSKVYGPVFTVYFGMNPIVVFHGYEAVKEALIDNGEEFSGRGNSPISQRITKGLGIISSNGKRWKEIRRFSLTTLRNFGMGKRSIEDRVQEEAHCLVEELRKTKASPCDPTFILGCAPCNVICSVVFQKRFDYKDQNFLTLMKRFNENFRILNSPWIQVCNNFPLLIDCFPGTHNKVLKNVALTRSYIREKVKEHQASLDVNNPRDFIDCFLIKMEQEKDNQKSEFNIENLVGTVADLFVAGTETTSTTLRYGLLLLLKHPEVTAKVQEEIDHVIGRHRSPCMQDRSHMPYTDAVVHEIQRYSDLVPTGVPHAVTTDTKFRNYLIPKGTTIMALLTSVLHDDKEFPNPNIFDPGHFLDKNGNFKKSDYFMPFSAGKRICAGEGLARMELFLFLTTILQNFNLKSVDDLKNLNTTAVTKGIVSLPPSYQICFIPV

CYP2C19 = conditions: human hepatic microsomes; cited from earlier work
CYP2B6 = conditions: human hepatic microsomes; cited from earlier work
CYP2C9 = conditions: human hepatic microsomes; cited from earlier work
[4] = cited from earlier work; remark: listed apart in the source
[5] = assay type: in vivo, human
[6] = Population pharmacokinetic modeling and simulation; parameters: species or system human; conditions: with gemfibrozil vs enzalutamide alone
[7] = cited from earlier work; remark: listed apart in the source
[8] = patients with mCRPC; cited from earlier work
CYP3A4 [9] = conditions: human primary hepatocyte cultures; cited from earlier work
CYP3A4 [10] = experiment: Clinical effect of enzalutamide on CYP3A4; conditions: enzalutamide 160 mg once daily; oral midazolam
[11] = arm 2
[12] = enzalutamide 160 mg/day vs placebo-to-match
[13] = 14 patients taking enzalutamide 160 mg once daily for 49 days, mean ± standard deviation
[14] = 14 patients taking enzalutamide 160 mg once daily for 49 days
[15] = with itraconazole vs enzalutamide alone
[16] = with itraconazole vs enzalutamide alone, observed data

CCc1ccc(CCOc2ccc(CC3SC(=O)NC3=O)cc2)nc1 (stereo not drawn) [pioglitazone, reference compound]
increase in AUC∞ by enzalutamide [1, 12]: 20% | AUC∞ geometric mean ratio test/reference (90 % CI) [1]: 1.20 (0.98–1.47) | C max geometric mean ratio test/reference (90 % CI) [1]: 0.82 (0.67–1.01)

CC1(C)C(=O)N(c2ccc(C#N)c(C(F)(F)F)c2)C(=S)N1c1ccc(C(=O)O)c(F)c1 [Carboxylic acid metabolite]
C max [2, 13]: 8860 ± 6520 ng/mL | C trough [2, 13]: 6320 ± 5190 ng/mL | t max [2, 14]: 3.5 [0.0–24.0] h | AUCτ ([2]; mean ± standard deviation): 193 ± 144 µg·h/mL | plasma concentrations lower than enzalutamide ([3]; circulating concentrations): approximately 25% | inhibition of CYP2C8 (CYP2C8): may act as inhibitors | inhibition of CYP2C19 (CYP2C19): may act as inhibitors | inhibition of CYP2B6 (CYP2B6): lesser inhibitory effects | inhibition of CYP2C9 (CYP2C9): lesser inhibitory effects | pharmacological activity (primary and secondary pharmacodynamics) [4]: pharmacologically inactive

CC1(C)C(=O)N(c2ccc(C#N)c(C(F)(F)F)c2)C(=S)N1c1ccc(C(N)=O)c(F)c1 [N-desmethyl enzalutamide]
decrease in Cmax ([5]; with gemfibrozil vs enzalutamide alone): 44% | decrease in AUC18 d ([5]; with gemfibrozil vs enzalutamide alone, observed data): 67% | decrease in AUC18 d [5, 15]: 4% | decrease in Cmax [5, 15]: 14% | increase in AUC∞ [5, 16]: 1.21 fold | decrease in AUC∞ [6]: 25% | C max [2, 13]: 12700 ± 3770 ng/mL | C trough [2, 13]: 10600 ng/mL and 10600 ± 3270 ng/mL | t max [2, 14]: 4.0 [0.0–24.0] h | AUCτ ([2]; mean ± standard deviation): 278 ± 85.5 µg·h/mL | circulating plasma concentrations relative to enzalutamide [3]: approximately the same plasma concentrations as enzalutamide | inhibition of CYP2C8 (CYP2C8): may act as inhibitors | inhibition of CYP2C19 (CYP2C19): may act as inhibitors | inhibition of CYP2B6 (CYP2B6): lesser inhibitory effects | inhibition of CYP2C9 (CYP2C9): lesser inhibitory effects

COc1ccc2nc([S+]([O-])Cc3ncc(CO)c(OC)c3C)[nH]c2c1 (stereo not drawn) [5-Hydroxy-omeprazole]
decrease in AUC∞ by enzalutamide [1, 12]: 54% | AUC∞ geometric mean ratio test/reference (90 % CI) [1]: 0.46 (0.39–0.53) | C max geometric mean ratio test/reference (90 % CI) [1]: 0.64 (0.50–0.83)

Cc1ncc2n1-c1ccc(Cl)cc1C(c1ccccc1F)=NC2 [midazolam, reference compound]
decrease in AUC∞ by enzalutamide [1, 12]: 86% | AUC∞ geometric mean ratio test/reference (90 % CI) [1]: 0.14 (0.12–0.17) | C max geometric mean ratio test/reference (90 % CI) [1]: 0.23 (0.20–0.27)

CC(O)c1ccc(CCOc2ccc(CC3SC(=O)NC3=O)cc2)nc1 (stereo not drawn) [Hydroxy-pioglitazone (M-IV), Hydroxy-pioglitazone]
decrease in AUC∞ by enzalutamide [1, 12]: 37% | AUC∞ geometric mean ratio test/reference (90 % CI) [1]: 0.63 (0.52–0.77) | C max geometric mean ratio test/reference (90 % CI) [1]: 0.60 (0.52–0.70)

CNC(=O)c1ccc(N2C(=S)N(c3ccc(C#N)c(C(F)(F)F)c3)C(=O)C2(C)C)cc1F [Enzalutamide, enzalutamide, reference compound]
increase in AUC∞ [5, 16]: 1.41 fold | increase in AUC∞ [6]: 4.26 fold | C trough [2, 13]: 12000 ± 3510 ng/mL | CL/F [2, 13]: 0.52 ± 0.09 L/h | concentration at 49 d ([2]; human, plasma, oral, 160 mg once daily): 12000 ng/mL | Cmax ([2]; human, plasma, oral, 160 mg, C max, 14 patients taking enzalutamide 160 mg once daily for 49 days, mean ± standard deviation): ~17000 ng/mL | aqueous solubility [7]: ≤ 2.0 µg/mL | maximum tolerated dose [8]: 240 mg/day | inhibition of CYP2C8 (CYP2C8): may act as inhibitors | inhibition of CYP2C19 (CYP2C19): may act as inhibitors | inhibition of CYP2B6 (CYP2B6): lesser inhibitory effects | inhibition of CYP2C9 (CYP2C9): lesser inhibitory effects | induction of CYP3A4 messenger RNA and enzymatic activity (CYP3A4 [9]): may cause increases in messenger RNA and enzymatic activity for CYP3A4 | CYP3A4 induction classification (CYP3A4 [10]): strong inducer

CC(=O)C[C@H](c1ccccc1)c1c(O)c2ccccc2oc1=O [R-warfarin, reference compound]
decrease in AUC∞ by enzalutamide [1, 12]: 45%

OCc1ncc2n1-c1ccc(Cl)cc1C(c1ccccc1F)=NC2 [1-Hydroxy-midalozam, 1-hydroxy-midazolam]
decrease in AUC∞ by enzalutamide [1, 12]: 76% | AUC∞ geometric mean ratio test/reference (90 % CI) [1]: 0.24 (0.20–0.28) | C max geometric mean ratio test/reference (90 % CI) [1]: 0.29 (0.24–0.35)

CC(=O)C[C@@H](c1ccccc1)c1c(O)c2ccc(O)cc2oc1=O [7-Hydroxy-S-warfarin]
decrease in AUC∞ by enzalutamide [1, 12]: 53% | AUC∞ geometric mean ratio test/reference (90 % CI) [1]: 0.47 (0.35–0.63) | C max geometric mean ratio test/reference (90 % CI) [1]: 0.83 (0.71–0.99)

COc1ccc2[nH]c([S+]([O-])Cc3ncc(C)c(OC)c3C)nc2c1 (stereo not drawn) [omeprazole, reference compound]
decrease in AUC∞ by enzalutamide [1, 12]: 70% | AUC∞ geometric mean ratio test/reference (90 % CI) [1]: 0.30 (0.24–0.36) | C max geometric mean ratio test/reference (90 % CI) [1]: 0.38 (0.26–0.54)

CC(=O)C[C@@H](c1ccccc1)c1c(O)c2ccccc2oc1=O [S-warfarin, reference compound]
decrease in AUC∞ by enzalutamide [1, 12]: 56%

Cc1ccc(C)c(OCCCC(C)(C)C(=O)O)c1 [gemfibrozil]
adverse event above NCI-CTCAE grade 1 with possible relationship [11]: grade 2 flatulence in one subject
